This note sets out measurements from the SangsterLogP compilation.

The data set can be described thus: method code SF-HPLC, from DOI: 10.1111/j.2042-7158.1987.tb06262.x, PMID: 2884287. Particulars: pH 3.0.

Structures are written as SMILES.

The logD is the decadic logarithm of the distribution of all forms, ionised or not, between an organic phase and buffer at a given pH. Low readings indicate a more hydrophilic compound, high ones a more lipophilic compound. On to `Cn1c(=O)[nH]c2[nH]c(=O)[nH]c2c1=O`, for which the logD is -0.57.

On to `CN(C=O)c1c(N)n(C)c(=O)n(C)c1=O`, for which the logD was -1.32.

Consider `Cn1c(=O)[nH]c(=O)c2c1[nH]c(=O)n2C`, for which the logD is -1.33.

On to `Cn1c(=O)[nH]c2[nH]c(=O)[nH]c(=O)c21`, for which the logD is -1.18.

With `Cn1c(=O)c2c([nH]c(=O)n2C)n(C)c1=O`, the logD was -0.37.

Consider `Cn1c(N)c(NC=O)c(=O)n(C)c1=O`, for which the logD was -0.64.

For `CN(C=O)c1c(N)[nH]c(=O)n(C)c1=O`, the logD was -2.03.

For the compound `Cn1c(=O)c2[nH]c(=O)[nH]c2n(C)c1=O`, the logD was -0.52.

For the compound `Cn1c(=O)[nH]c2nc[nH]c2c1=O`, the logD was -0.27.

In the case of `CN(C=O)c1c(N)n(C)c(=O)[nH]c1=O`, the logD was -1.3.

With `Cn1c(=O)[nH]c(=O)c2[nH]c(=O)[nH]c21`, the logD was -1.08.

For the compound `Cn1c(=O)[nH]c2[nH]c(=O)n(C)c2c1=O`, the log distribution coefficient (logD) was -0.22.

Consider `Cn1cnc2[nH]c(=O)[nH]c(=O)c21`, for which the logD was -0.89.
